Assay results taken from patent US20120122908A1, “Novel C-4 Substituted Retinoids” (University of Maryland, priority 2000, published 2012).

System: LNCaP cells
Assay: LNCaP cell growth, compound in combination with ATRA
Assay type: cell-based, human
Conditions: 10^−8 to 10^−5 M in combination with 10^−5 M ATRA, compared with no drug or ATRA only
Method: LNCaP cells are androgen-dependent cell cultures. PC-3 cells are androgen independent cell culture.
LNCaP cells are transferred into ATRA-free medium 3 days prior to start of experiments. Medium consist of phenol red-free IMEM supplemented with 5% FBS and 1% P/S. Cell are then plated into 24-well culture plates (15000 cells per well) in 1 mL of same medium. After a 24-hour attachment period, the vehicle (ethanol) or ATRA (10^−5 M) alone or ATRA in combination with a novel compound at a range of concentrations are added to triplicate wells. Medium/treatments are changed every 3 days. After 9 days of treatment, cells are removed from the wells with typsin/EDTA and counted in a Coulter counter. Using well-known methods (Wouters W, Van Dun J, Dillen A, Coene M.-C, Cools W and De Coster R, Effects of liarozole, a new antitumoral compound an retinoic acid-induced inhibition of cell growth and on retinoic acid metabolism in MCF-7 breast cancer cells, Cancer Res 52: 2841-2846, 1992), one determines the inhibitory effect of the novel compounds on LNCaP cells grown with ATRA.

For `CC1=C(/C=C/C(C)=C/C=C/C(C)=C/C(=O)O)C(C)(C)CCC1n1ccnc1` (racemic) [VN/14-1, (±)-4-(1H-imidazole-1-yl)retinoic acid], the “inhibition of proliferation of LNCaP cells” value was “inhibit the proliferation of LNCaP cells better than no drug or ATRA only”.
